Measurements from PMC4310350 (Drug Design, Development and Therapy, 2015).
Entries after “also recorded” stand apart in the source; their conditions may differ. Read-outs that look alike come from different tables or passages of the source.

Tests used:
OAT3 [1] = target: T1, OAT3 (Homo sapiens, UniProt Q8TCC7); conditions: 10 μM catalposide, HEK293-OAT3
T1 sequence (Q8TCC7 1-542): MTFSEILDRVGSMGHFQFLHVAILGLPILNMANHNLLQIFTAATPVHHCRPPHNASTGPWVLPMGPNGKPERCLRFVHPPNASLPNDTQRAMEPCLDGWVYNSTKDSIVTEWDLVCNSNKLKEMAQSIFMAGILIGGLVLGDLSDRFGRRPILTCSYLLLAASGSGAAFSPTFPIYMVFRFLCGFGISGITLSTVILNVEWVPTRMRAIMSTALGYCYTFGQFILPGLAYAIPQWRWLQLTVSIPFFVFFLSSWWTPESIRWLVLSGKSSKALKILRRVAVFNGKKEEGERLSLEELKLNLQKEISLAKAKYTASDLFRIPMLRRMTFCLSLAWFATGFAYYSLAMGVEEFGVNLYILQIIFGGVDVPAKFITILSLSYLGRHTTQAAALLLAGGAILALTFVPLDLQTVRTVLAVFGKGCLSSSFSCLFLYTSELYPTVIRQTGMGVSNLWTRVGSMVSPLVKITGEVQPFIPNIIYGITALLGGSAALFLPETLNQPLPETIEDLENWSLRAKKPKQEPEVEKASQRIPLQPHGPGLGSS

OAT3 [2] = target: T1, OAT3; experiment: in vitro; conditions: HEK293 cells transiently expressing OAT3, probe catalposide 10 μM
OATP1B3 = target: T2, OATP1B3 (Homo sapiens, UniProt Q9NPD5); conditions: cited from earlier work
T2 sequence (Q9NPD5 1-702): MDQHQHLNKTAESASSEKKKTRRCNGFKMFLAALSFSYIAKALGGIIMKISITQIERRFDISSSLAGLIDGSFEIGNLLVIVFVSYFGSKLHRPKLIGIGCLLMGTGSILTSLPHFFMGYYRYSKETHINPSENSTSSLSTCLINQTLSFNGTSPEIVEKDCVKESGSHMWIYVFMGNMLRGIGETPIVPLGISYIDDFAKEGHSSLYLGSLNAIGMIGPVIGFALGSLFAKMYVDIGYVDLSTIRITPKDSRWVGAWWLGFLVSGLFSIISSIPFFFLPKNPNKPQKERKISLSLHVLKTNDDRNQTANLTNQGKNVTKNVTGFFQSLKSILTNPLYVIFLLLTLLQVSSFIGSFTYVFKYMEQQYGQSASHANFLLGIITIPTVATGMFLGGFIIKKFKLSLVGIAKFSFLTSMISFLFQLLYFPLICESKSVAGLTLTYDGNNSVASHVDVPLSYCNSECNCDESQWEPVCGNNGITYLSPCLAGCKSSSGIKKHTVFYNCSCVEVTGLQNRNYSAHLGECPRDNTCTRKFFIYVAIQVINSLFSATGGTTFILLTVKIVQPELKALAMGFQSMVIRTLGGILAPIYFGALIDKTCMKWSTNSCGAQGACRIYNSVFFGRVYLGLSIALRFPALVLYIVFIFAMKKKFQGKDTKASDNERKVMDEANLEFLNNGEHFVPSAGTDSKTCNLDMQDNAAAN

OAT1 = target: T3, OAT1 (Homo sapiens, UniProt Q4U2R8); conditions: cited from earlier work
T3 sequence (Q4U2R8 1-563): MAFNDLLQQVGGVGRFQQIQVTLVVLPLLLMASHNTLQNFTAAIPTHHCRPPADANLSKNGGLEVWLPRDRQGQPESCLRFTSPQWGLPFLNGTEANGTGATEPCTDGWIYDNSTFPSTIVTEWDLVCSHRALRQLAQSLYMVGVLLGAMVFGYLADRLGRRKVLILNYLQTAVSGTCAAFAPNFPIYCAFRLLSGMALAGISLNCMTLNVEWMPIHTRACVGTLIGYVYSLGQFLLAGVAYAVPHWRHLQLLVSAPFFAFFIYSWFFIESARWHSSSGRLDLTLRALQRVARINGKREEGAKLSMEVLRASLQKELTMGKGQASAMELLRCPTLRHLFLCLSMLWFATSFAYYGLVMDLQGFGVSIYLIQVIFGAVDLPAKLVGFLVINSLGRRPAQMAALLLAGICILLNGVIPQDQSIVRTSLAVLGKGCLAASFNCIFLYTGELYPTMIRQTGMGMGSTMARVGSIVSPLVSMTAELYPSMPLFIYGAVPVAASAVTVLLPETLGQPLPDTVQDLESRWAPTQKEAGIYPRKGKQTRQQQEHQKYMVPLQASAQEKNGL

OAT3 [3] = target: T1, OAT3; conditions: cited from earlier work
OATP2B1 = conditions: cited from earlier work
[4] = substrate: O=C(O[C@H]1[C@@H]2C=CO[C@@H](O[C@@H]3O[C@H](CO)[C@@H](O)[C@H](O)[C@H]3O)[C@@H]2[C@@]2(CO)O[C@@H]12)c1ccc(O)cc1; experiment: Uptake in HEK293 cells overexpressing OAT3; assay type: in vitro ADME; conditions: other: OAT3-mediated uptake, 2–500 μM catalposide, 10 minutes; 37.0 °C

Molecule: CN/C(=N/CCSCc1nc[nH]c1C)NC#N [cimetidine]
- Effect on OAT3-mediated catalposide uptake (words) (OAT3 [1]): decreased to basal levels
- Effect on OAT3-mediated catalposide uptake (words) (OAT3 [1]; listed as Cimetidine): inhibited OAT3-mediated catalposide transport in a concentration-dependent manner
- inhibition at 10 min, 100 μM (OAT3 [2]): 70.4%

Molecule: CCCN(CCC)S(=O)(=O)c1ccc(C(=O)O)cc1 [probenecid]
- Effect on OAT3-mediated catalposide uptake (words) (OAT3 [1]): decreased to basal levels; also recorded: inhibited OAT3-mediated catalposide transport in a concentration-dependent manner
- inhibition at 10 min, 10 μM (OAT3 [2]): 84.5%

Molecule: O=c1cc(-c2ccccc2)oc2cc(O)c(O)c(O)c12 [Bicalein]
- Inhibition of OATP1B3 transport activity (OATP1B3): significantly inhibited
- Inhibition of OAT1 transport activity (OAT1): significantly inhibited
- Inhibition of OAT3 transport activity (OAT3 [3]): significantly inhibited

Molecule: COc1ccc(-c2oc3c(CC=C(C)C)c(O[C@@H]4O[C@H](CO)[C@@H](O)[C@H](O)[C@H]4O)cc(O)c3c(=O)c2O[C@@H]2O[C@@H](C)[C@H](O)[C@@H](O)[C@H]2O)cc1 [icariin]
- Inhibition of OATP1B3 activity (OATP1B3): potentially inhibited
- Inhibition of OATP2B1 activity (OATP2B1): potentially inhibited

Molecule: COc1c(O)cc(O)c2c(=O)cc(-c3ccccc3)oc12 [wogonin]
- Inhibition of OATP1B3 transport activity (OATP1B3): significantly inhibited
- Inhibition of OAT1 transport activity (OAT1): significantly inhibited
- Inhibition of OAT3 transport activity (OAT3 [3]): significantly inhibited

B1: OAT3 (Homo sapiens) (protein)
chain: MTFSEILDRVGSMGHFQFLHVAILGLPILNMANHNLLQIFTAATPVHHCRPPHNASTGPWVLPMGPNGKPERCLRFVHPPNASLPNDTQRAMEPCLDGWVYNSTKDSIVTEWDLVCNSNKLKEMAQSIFMAGILIGGLVLGDLSDRFGRRPILTCSYLLLAASGSGAAFSPTFPIYMVFRFLCGFGISGITLSTVILNVEWVPTRMRAIMSTALGYCYTFGQFILPGLAYAIPQWRWLQLTVSIPFFVFFLSSWWTPESIRWLVLSGKSSKALKILRRVAVFNGKKEEGERLSLEELKLNLQKEISLAKAKYTASDLFRIPMLRRMTFCLSLAWFATGFAYYSLAMGVEEFGVNLYILQIIFGGVDVPAKFITILSLSYLGRHTTQAAALLLAGGAILALTFVPLDLQTVRTVLAVFGKGCLSSSFSCLFLYTSELYPTVIRQTGMGVSNLWTRVGSMVSPLVKITGEVQPFIPNIIYGITALLGGSAALFLPETLNQPLPETIEDLENWSLRAKKPKQEPEVEKASQRIPLQPHGPGLGSS
- Km [4]: 41.5 µM
